Measured values taken from paper PMC3114339 (Diabetes Care, 2011).

System: type 2 diabetic subjects
Experiment: Euglycemic glucose clamp for 32 h after s.c. injection of basal insulin
Assay type: in vivo, human

Substance | plasma free fatty acid concentrations higher with detemir compared with glargine (throughout the 32-h clamp study, P < 0.001) | plasma free fatty acid concentrations higher with detemir compared with NPH (throughout the 32-h clamp study, P = 0.003) | interquartile range in time of duration of action (plasma glucose >136 mg/dL) (32-h clamp, statistical significance achieved only versus detemir) | mean GIR AUC0–32 h greater with glargine than NPH (32-h euglycemic clamp, 0.4 units/kg s.c., relative difference versus NPH) | mean GIR AUC0–32 h greater with glargine than detemir (32-h euglycemic clamp, 0.4 units/kg s.c., relative difference versus detemir)
detemir | +26% | +15% |  |  | 
glargine |  |  | smaller interquartile range in time of duration of action than NPH and detemir | 31% | 42%
